Measurements taken from patent US20230373939A1 (VERTEX PHARMACEUTICALS INCORPORATED, priority 2020, published 2023).
Like-named read-outs stand apart in the source and are kept apart here.

Target: T1, F508del in NIH 3T3 cells (Homo sapiens, UniProt P13569, DEL508-508)
T1 construct: expressed in transfected cells
Experiment: 3T3 assay: membrane potential optical assay for F508del correction
Format: cell-based
Excerpt: 1. Membrane Potential Optical Methods for Assaying F508del Modulation Properties of Compounds
The assay utilizes fluorescent voltage sensing dyes to measure changes in membrane potential using a fluorescent plate reader (e.g., FLTPR III, Molecular Devices, Inc.) as a readout for increase in functional F508del in NIH 3T3 cells. The driving force for the response is the creation of a chloride ion gradient in conjunction with channel activation by a single liquid addition step after the cells have previously been treated with compounds and subsequently loaded with a voltage sensing dye.
2. Identification of Corrector Compounds
To identify correctors of F508del, a single-addition HTS assay format was developed. This HTS assay utilizes fluorescent voltage sensing dyes to measure changes in membrane potential on the FLIPR III as a measurement for increase in gating (conductance) of F508del in F508del NUT 3T3 cells. The F508del NUT 3T3 cell cultures were incubated with the corrector compounds at a range of concentrations for 18-24 hours at 37° C., and subsequently loaded with a redistribution dye. The driving force for the response is a Cl^− ion gradient in conjunction with channel activation with forskolin in a single liquid addition step using a fluorescent plate reader such as FLIPR III.
Bath Solution #1: (in mM) NaCl 160, KCl 4.5, CaCl2 2, MgCl2 1, HEPES 10, pH 7.4 with NaOH.
Chloride-free bath solution: Chloride salts in Bath Solution #1 (above) are substituted with gluconate salts.
NIH3T3 mouse fibroblasts stably expressing F508del were used for optical measurements of membrane potential. The cells were maintained at 37° C. in 5% CO2 and 90% humidity in Dulbecco's modified Eagle's medium supplemented with 2 mM glutamine, 10% fetal bovine serum, 1×NEAA, b-ME, 1×pen/strep, and 25 mM HEPES in 175 cm^2 culture flasks. For all optical assays, the cells were seeded at ˜20,000/well in 384-well Matrigel-coated plates. For the correction assays, the cells were cultured at 37° C. with and without compounds for 16-24 hours.

[1] = NIH3T3, NIH 3T3 cells, F508del, read-out: 3T3 Max Activity (%)
[2] = NIH 3T3 cells, F508del, read-out: 3T3 EC50
[3] = NIH3T3, read-out: 3T3 Max Activity (%)

T1 sequence (P13569 with tags, fused parts or gaps DEL508-508): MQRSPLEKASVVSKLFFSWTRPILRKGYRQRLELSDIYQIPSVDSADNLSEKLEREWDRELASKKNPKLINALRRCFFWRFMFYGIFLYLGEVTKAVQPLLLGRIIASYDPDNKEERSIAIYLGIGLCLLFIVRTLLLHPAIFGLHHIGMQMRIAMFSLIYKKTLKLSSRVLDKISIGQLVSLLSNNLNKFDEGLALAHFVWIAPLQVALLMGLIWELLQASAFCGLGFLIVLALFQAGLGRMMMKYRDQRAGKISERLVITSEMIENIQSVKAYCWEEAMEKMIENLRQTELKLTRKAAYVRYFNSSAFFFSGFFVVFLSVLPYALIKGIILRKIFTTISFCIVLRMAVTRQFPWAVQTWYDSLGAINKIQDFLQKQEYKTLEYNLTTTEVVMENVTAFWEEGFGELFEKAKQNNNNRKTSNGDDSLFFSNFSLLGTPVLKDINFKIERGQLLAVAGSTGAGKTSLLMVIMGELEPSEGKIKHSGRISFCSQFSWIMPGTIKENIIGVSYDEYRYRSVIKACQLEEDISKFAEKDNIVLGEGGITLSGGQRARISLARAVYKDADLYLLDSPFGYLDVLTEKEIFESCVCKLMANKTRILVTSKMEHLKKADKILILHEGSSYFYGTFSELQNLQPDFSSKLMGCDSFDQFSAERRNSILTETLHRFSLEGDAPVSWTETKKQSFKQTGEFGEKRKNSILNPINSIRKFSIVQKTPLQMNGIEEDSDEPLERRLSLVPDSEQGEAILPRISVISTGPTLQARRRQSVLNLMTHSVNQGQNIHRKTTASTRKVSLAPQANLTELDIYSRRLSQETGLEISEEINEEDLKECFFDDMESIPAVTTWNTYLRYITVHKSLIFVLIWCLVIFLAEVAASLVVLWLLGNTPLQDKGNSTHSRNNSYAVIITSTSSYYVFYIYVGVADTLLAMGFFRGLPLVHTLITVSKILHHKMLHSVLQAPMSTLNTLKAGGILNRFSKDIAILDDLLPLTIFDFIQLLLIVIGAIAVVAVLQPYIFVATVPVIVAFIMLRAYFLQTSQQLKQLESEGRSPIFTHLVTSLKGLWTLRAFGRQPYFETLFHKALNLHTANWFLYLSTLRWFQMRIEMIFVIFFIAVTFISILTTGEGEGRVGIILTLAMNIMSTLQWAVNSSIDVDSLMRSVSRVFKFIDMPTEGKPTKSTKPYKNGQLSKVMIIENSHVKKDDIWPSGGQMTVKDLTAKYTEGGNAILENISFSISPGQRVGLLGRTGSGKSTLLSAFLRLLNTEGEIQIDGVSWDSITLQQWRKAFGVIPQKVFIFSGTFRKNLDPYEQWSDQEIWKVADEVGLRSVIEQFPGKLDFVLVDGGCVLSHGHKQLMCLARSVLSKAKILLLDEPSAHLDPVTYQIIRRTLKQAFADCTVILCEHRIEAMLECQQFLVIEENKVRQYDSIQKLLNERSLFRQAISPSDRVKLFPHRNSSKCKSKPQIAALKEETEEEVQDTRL

Row | SMILES | Emax [1] | EC50 [2] | Emax [3] | EC50
1 | CCCNC(=O)c1sc(NS(=O)(=O)c2ccccc2)nc1-c1ccccc1 [Compound 39, 2-(benzenesulfonamido)-4-phenyl-N-propyl-thiazole-5-carboxamide] | < 30% | – | – | –
2 | COC(=O)Cc1nc(NS(=O)(=O)c2ccccc2)sc1-c1ccccc1 [Compound 40, methyl 2-[2-(benzenesulfonamido)-5-phenyl-thiazol-4-yl]acetate] | 30 to 60% | 3000 to 30000 nM | – | –
3 | CCOC(=O)c1nc(NS(=O)(=O)c2ccccc2)sc1-c1ccccc1 [Compound 41, ethyl 2-(benzenesulfonamido)-5-phenyl-thiazole-4-carboxylate] | 30 to 60% | 1000 to 3000 nM | – | –
4 | O=C(O)c1sc(NS(=O)(=O)c2ccccc2)nc1-c1ccccc1 [Compound 42, 4-phenyl-2-(phenylsulfonamido)thiazole-5-carboxylic acid] | 30 to 60% | – | – | –
5 | Cc1sc(NS(=O)(=O)c2ccccc2)nc1-c1ccncc1 [Compound 43, N-[5-methyl-4-(4-pyridyl)thiazol-2-yl]benzenesulfonamide] | < 30% | – | – | –
6 | Cc1nc(NS(=O)(=O)c2ccccc2)sc1-c1csc(Nc2ncccn2)n1 [Compound 44, N-[4-methyl-5-[2-(pyrimidin-2-ylamino)thiazol-4-yl]thiazol-2-yl]benzenesulfonamide] | < 30% | – | – | –
7 | CC(C)(C)c1nc(NS(=O)(=O)c2ccccc2)sc1C#N [Compound 45, N-(4-tert-butyl-5-cyano-thiazol-2-yl)benzenesulfonamide] | < 30% | – | – | –
8 | Cc1nc(NS(=O)(=O)c2ccccc2)sc1C [Compound 46, N-(4,5-dimethylthiazol-2-yl)benzenesulfonamide] | < 30% | – | – | –
9 | CCCc1nc(NS(=O)(=O)c2ccccc2)sc1C [Compound 47, N-(5-methyl-4-propyl-thiazol-2-yl)benzenesulfonamide] | < 30% | – | – | –
10 | Cc1cccc(-c2cc(NS(=O)(=O)c3ccccc3)nn2-c2c(C)cc(C)cc2C)c1 [Compound 48, N-[5-(m-tolyl)-1-(2,4,6-trimethylphenyl)pyrazol-3-yl]benzenesulfonamide] | – | < 1000 nM | > 60% | –
11 | Cc1cc(C)c(-n2nc(NS(=O)(=O)c3ccccc3)cc2-c2ccc(Oc3ccccc3)cc2)c(C)c1 [Compound 49, N-[5-(4-phenoxyphenyl)-1-(2,4,6-trimethylphenyl)pyrazol-3-yl]benzenesulfonamide] | – | < 1000 nM | 30 to 60% | –
12 | COc1cccc(-c2cc(NS(=O)(=O)c3ccccc3)nn2-c2c(C)cc(C)cc2C)c1 [Compound 50, N-[5-(3-methoxyphenyl)-1-(2,4,6-trimethylphenyl)pyrazol-3-yl]benzenesulfonamide] | – | – | > 60% | 1000 to 3000 nM
13 | CC(C)=Cc1cc(NS(=O)(=O)c2ccccc2)nn1-c1c(C)cc(C)cc1C [Compound 51, N-[5-(2-methylprop-1-enyl)-1-(2,4,6-trimethylphenyl)pyrazol-3-yl]benzenesulfonamide] | > 60% | 1000 to 3000 nM | – | –
14 | Cc1cc(C)c(-n2nc(NS(=O)(=O)c3ccccc3)cc2CC(C)C)c(C)c1 [Compound 52, N-[5-isobutyl-1-(2,4,6-trimethylphenyl)pyrazol-3-yl]benzenesulfonamide] | > 60% | 1000 to 3000 nM | – | –
15 | Cc1cc(C)c(-n2nc(NS(=O)(=O)c3ccccc3)cc2C(C)(C)C)c(C)c1 [Compound 53, N-[5-tert-butyl-1-(2,4,6-trimethylphenyl)pyrazol-3-yl]benzenesulfonamide] | < 30% | – | – | –
16 | Cc1cc(C)c(-n2nc(NS(=O)(=O)c3ccccc3)cc2-c2cccc(Oc3ccccc3)c2)c(C)c1 [Compound 54, N-[5-(3-phenoxyphenyl)-1-(2,4,6-trimethylphenyl)pyrazol-3-yl]benzenesulfonamide] | 30 to 60% | < 1000 nM | – | –
17 | Cc1cc(C)c(-n2nc(NS(=O)(=O)c3ccccc3)cc2-c2ccccc2Oc2ccccc2)c(C)c1 [Compound 55, N-[5-(2-phenoxyphenyl)-1-(2,4,6-trimethylphenyl)pyrazol-3-yl]benzenesulfonamide] | > 60% | < 1000 nM | – | –
18 | Cc1cc(C)c(-n2nc(NS(=O)(=O)c3ccccc3)cc2-c2ccc(Cl)cc2)c(C)c1 [Compound 56, N-[5-(4-chlorophenyl)-1-(2,4,6-trimethylphenyl)pyrazol-3-yl]benzenesulfonamide] | 30 to 60% | < 1000 nM | – | –

Row | SMILES | Emax [1] | EC50 [2] | Emax [3] | EC50
19 | Cc1cc(C)c(-n2nc(NS(=O)(=O)c3ccccc3)cc2-c2cccc(Cl)c2)c(C)c1 [Compound 57, N-[5-(3-chlorophenyl)-1-(2,4,6-trimethylphenyl)pyrazol-3-yl]benzenesulfonamide] | > 60% | < 1000 nM | – | –
20 | Cc1cc(C)c(-n2nc(NS(=O)(=O)c3ccccc3)cc2-c2ccccc2Cl)c(C)c1 [Compound 58, N-[5-(2-chlorophenyl)-1-(2,4,6-trimethylphenyl)pyrazol-3-yl]benzenesulfonamide] | > 60% | < 1000 nM | – | –
21 | COc1ccc(-c2cc(NS(=O)(=O)c3ccccc3)nn2-c2c(C)cc(C)cc2C)cc1 [Compound 59, N-[5-(4-methoxyphenyl)-1-(2,4,6-trimethylphenyl)pyrazol-3-yl]benzenesulfonamide] | 30 to 60% | < 1000 nM | – | –
22 | COc1ccccc1-c1cc(NS(=O)(=O)c2ccccc2)nn1-c1c(C)cc(C)cc1C [Compound 60, N-[5-(2-methoxyphenyl)-1-(2,4,6-trimethylphenyl)pyrazol-3-yl]benzenesulfonamide] | > 60% | 1000 to 3000 nM | – | –
23 | Cc1ccc(-c2cc(NS(=O)(=O)c3ccccc3)nn2-c2c(C)cc(C)cc2C)cc1 [Compound 61, N-[5-(p-tolyl)-1-(2,4,6-trimethylphenyl)pyrazol-3-yl]benzenesulfonamide] | 30 to 60% | < 1000 nM | – | –
24 | Cc1cc(C)c(-n2nc(NS(=O)(=O)c3ccccc3)cc2-c2ccccc2C)c(C)c1 [Compound 62] | > 60% | < 1000 nM | – | –
25 | Cc1cc(C)c(-n2nc(NS(=O)(=O)c3ccccc3)cc2C2=CCCCC2)c(C)c1 [Compound 63, N-[5-(cyclohexen-1-yl)-1-(2,4,6-trimethylphenyl)pyrazol-3-yl]benzenesulfonamide] | > 60% | 1000 to 3000 nM | – | –
26 | Cc1cc(C)c(-n2nc(NS(=O)(=O)c3ccccc3)cc2C2CCCCC2)c(C)c1 [Compound 64, N-[5-cyclohexyl-1-(2,4,6-trimethylphenyl)pyrazol-3-yl]benzenesulfonamide] | > 60% | < 1000 nM | – | –
27 | C=C(C)c1cc(NS(=O)(=O)c2ccccc2)nn1-c1c(C)cc(C)cc1C [Compound 65, N-[5-isopropenyl-1-(2,4,6-trimethylphenyl)pyrazol-3-yl]benzenesulfonamide] | > 60% | 1000 to 3000 nM | – | –
28 | Cc1cc(C)c(-n2nc(NS(=O)(=O)c3ccccc3)cc2C(C)C)c(C)c1 [Compound 66, N-[5-isopropyl-1-(2,4,6-trimethylphenyl)pyrazol-3-yl]benzenesulfonamide] | 30 to 60% | 1000 to 3000 nM | – | –
29 | Cc1cc(C)c(-n2nc(NS(=O)(=O)c3ccccc3)cc2Br)c(C)c1 [Compound 67, N-[5-bromo-1-(2,4,6-trimethylphenyl)pyrazol-3-yl]benzenesulfonamide] | > 60% | 1000 to 3000 nM | – | –
30 | Cc1cc(C)c(-n2nc(NS(=O)(=O)c3ccccc3)cc2-c2ccccc2)c(C)c1 [Compound 68, N-[5-phenyl-1-(2,4,6-trimethylphenyl)pyrazol-3-yl]benzenesulfonamide] | > 60% | 1000 to 3000 nM | – | –
31 | O=S(=O)(Nc1nn(-c2cccc(Cl)c2)cc1-c1ccccc1)c1ccccc1 [Compound 69, N-[1-(3-chlorophenyl)-4-phenyl-pyrazol-3-yl]benzenesulfonamide] | – | 1000 to 3000 nM | 30 to 60% | –
32 | O=S(=O)(Nc1nn(-c2cccc(Cl)c2)cc1-c1cccc(Cl)c1)c1ccccc1 [Compound 70, N-[1,4-bis(3-chlorophenyl)pyrazol-3-yl]benzenesulfonamide] | – | – | 30 to 60% | < 1000 nM
33 | O=S(=O)(Nc1cc(Cc2ccccc2)n(-c2ccccc2)n1)c1ccccc1 [Compound 71, N-(5-benzyl-1-phenyl-pyrazol-3-yl)benzenesulfonamide] | < 30% | – | – | –
34 | Cn1cc(S(=O)(=O)Nc2nn(-c3ccccc3)cc2Cc2ccccc2)cn1 [Compound 72, N-(4-benzyl-1-phenyl-pyrazol-3-yl)-1-methyl-pyrazole-4-sulfonamide] | < 30% | – | – | –
35 | Nc1cccc(S(=O)(=O)Nc2nn(-c3ccccc3)cc2Cc2ccccc2)c1 [Compound 73, 3-amino-N-(4-benzyl-1-phenyl-pyrazol-3-yl)benzenesulfonamide] | 30 to 60% | – | – | –
36 | O=S(=O)(Nc1nn(-c2ccccc2)cc1Cc1ccccc1)c1ccccc1 [Compound 74, N-(4-benzyl-1-phenyl-pyrazol-3-yl)benzenesulfonamide] | < 30% | – | – | –
